Measurements reported in US10772893B2, “2-(morpholin-4-yl)-1,7-naphthyridines” (BAYER PHARMA AKTIENGESELLSCHAFT, priority 2014, dated 2020).
pIC50: −log10 of the molar value. Read-outs that look alike come from different tables or passages of the source.

Key:
HeLa-MaTu-ADR cells = assay: Proliferation assay, crystal violet staining; format: cell-based; settings: Homo sapiens, 96 h, 4 days incubation, read-out: Inhibition of HeLa-MaTu-ADR cell proliferation
Procedure: (§1) After 24 hours, the cells of one plate (zero plate) were dyed with crystal violet (see below), whereas the medium of the other plates was replaced with fresh culture medium (200 μl) to which the test substances were added in various concentrations (0 μM, and also in the range of 0.001-10 μM; the final concentration of the solvent dimethyl sulphoxide was 0.1 or 0.5%). The cells were incubated for 4 days in the presence of the test substances. […] After washing the fixed cells three times with water, the plates were dried at room temperature. The cells were stained by adding 100 μl/measurement point of a 0.1% strength crystal violet solution (pH adjusted to pH 3 by adding acetic acid). After washing the cells three times with water, the plates were dried at room temperature. The dye was dissolved by adding 100 μl/measurement point of a 10% strength acetic acid solution. […] The percentage change in cell growth was calculated by normalizing the measured values to the absorbance values of the zero plate (=0%) and the absorbance of the untreated (0 W) cells (=100%). The IC50 values were determined by means of a four parameter fit.

Caco-2 cells = assay: Proliferation assay, crystal violet staining; format: cell-based; settings: Homo sapiens, Caco-2, 96 h, 4 days incubation, read-out: Inhibition of Caco-2 cell proliferation
Procedure: as §1

HeLa cells = assay: Proliferation assay, crystal violet staining; settings: Homo sapiens, 96 h
DU145 cells = assay: Proliferation assay, crystal violet staining; settings: Homo sapiens, DU-145, 96 h, read-out: Inhibition of DU145 cell proliferation, DU145 cells, 4 days incubation
Procedure: as §1

B16F10 cells = assay: Proliferation assay, crystal violet staining; settings: B16-F10, 96 h, read-out: Inhibition of B16F10 cell proliferation
Procedure: Human tumour cells (Table 8) were originally obtained from the American Type Culture Collection (ATCC), the Deutsche Sammlung von Mikroorganismen and Zellkulturen (DSMZ, German Collection of Microorganisms and Cell Cultures), or Epo GmbH Berlin. […] After 24 hours, the cells of one plate (zero plate) were dyed with crystal violet (see below), whereas the medium of the other plates was replaced with fresh culture medium (200 μl) to which the test substances were added in various concentrations (0 μM, and also in the range of 0.001-10 μM; the final concentration of the solvent dimethyl sulphoxide was 0.1 or 0.5%). The cells were incubated for 4 days in the presence of the test substances. […] After washing the fixed cells three times with water, the plates were dried at room temperature. The cells were stained by adding 100 μl/measurement point of a 0.1% strength crystal violet solution (pH adjusted to pH 3 by adding acetic acid). After washing the cells three times with water, the plates were dried at room temperature. The dye was dissolved by adding 100 μl/measurement point of a 10% strength acetic acid solution. […] The percentage change in cell growth was calculated by normalizing the measured values to the absorbance values of the zero plate (=0%) and the absorbance of the untreated (0 W) cells (=100%). The IC50 values were determined by means of a four parameter fit.

human ATR = human ATR (Homo sapiens (Human), UniProt Q13535); assay: ATR binding assay (TR-FRET, displacement of fluorescent tracer A or B)
Chain of human ATR (Q13535 other isoform, or with tags, fused parts or gaps): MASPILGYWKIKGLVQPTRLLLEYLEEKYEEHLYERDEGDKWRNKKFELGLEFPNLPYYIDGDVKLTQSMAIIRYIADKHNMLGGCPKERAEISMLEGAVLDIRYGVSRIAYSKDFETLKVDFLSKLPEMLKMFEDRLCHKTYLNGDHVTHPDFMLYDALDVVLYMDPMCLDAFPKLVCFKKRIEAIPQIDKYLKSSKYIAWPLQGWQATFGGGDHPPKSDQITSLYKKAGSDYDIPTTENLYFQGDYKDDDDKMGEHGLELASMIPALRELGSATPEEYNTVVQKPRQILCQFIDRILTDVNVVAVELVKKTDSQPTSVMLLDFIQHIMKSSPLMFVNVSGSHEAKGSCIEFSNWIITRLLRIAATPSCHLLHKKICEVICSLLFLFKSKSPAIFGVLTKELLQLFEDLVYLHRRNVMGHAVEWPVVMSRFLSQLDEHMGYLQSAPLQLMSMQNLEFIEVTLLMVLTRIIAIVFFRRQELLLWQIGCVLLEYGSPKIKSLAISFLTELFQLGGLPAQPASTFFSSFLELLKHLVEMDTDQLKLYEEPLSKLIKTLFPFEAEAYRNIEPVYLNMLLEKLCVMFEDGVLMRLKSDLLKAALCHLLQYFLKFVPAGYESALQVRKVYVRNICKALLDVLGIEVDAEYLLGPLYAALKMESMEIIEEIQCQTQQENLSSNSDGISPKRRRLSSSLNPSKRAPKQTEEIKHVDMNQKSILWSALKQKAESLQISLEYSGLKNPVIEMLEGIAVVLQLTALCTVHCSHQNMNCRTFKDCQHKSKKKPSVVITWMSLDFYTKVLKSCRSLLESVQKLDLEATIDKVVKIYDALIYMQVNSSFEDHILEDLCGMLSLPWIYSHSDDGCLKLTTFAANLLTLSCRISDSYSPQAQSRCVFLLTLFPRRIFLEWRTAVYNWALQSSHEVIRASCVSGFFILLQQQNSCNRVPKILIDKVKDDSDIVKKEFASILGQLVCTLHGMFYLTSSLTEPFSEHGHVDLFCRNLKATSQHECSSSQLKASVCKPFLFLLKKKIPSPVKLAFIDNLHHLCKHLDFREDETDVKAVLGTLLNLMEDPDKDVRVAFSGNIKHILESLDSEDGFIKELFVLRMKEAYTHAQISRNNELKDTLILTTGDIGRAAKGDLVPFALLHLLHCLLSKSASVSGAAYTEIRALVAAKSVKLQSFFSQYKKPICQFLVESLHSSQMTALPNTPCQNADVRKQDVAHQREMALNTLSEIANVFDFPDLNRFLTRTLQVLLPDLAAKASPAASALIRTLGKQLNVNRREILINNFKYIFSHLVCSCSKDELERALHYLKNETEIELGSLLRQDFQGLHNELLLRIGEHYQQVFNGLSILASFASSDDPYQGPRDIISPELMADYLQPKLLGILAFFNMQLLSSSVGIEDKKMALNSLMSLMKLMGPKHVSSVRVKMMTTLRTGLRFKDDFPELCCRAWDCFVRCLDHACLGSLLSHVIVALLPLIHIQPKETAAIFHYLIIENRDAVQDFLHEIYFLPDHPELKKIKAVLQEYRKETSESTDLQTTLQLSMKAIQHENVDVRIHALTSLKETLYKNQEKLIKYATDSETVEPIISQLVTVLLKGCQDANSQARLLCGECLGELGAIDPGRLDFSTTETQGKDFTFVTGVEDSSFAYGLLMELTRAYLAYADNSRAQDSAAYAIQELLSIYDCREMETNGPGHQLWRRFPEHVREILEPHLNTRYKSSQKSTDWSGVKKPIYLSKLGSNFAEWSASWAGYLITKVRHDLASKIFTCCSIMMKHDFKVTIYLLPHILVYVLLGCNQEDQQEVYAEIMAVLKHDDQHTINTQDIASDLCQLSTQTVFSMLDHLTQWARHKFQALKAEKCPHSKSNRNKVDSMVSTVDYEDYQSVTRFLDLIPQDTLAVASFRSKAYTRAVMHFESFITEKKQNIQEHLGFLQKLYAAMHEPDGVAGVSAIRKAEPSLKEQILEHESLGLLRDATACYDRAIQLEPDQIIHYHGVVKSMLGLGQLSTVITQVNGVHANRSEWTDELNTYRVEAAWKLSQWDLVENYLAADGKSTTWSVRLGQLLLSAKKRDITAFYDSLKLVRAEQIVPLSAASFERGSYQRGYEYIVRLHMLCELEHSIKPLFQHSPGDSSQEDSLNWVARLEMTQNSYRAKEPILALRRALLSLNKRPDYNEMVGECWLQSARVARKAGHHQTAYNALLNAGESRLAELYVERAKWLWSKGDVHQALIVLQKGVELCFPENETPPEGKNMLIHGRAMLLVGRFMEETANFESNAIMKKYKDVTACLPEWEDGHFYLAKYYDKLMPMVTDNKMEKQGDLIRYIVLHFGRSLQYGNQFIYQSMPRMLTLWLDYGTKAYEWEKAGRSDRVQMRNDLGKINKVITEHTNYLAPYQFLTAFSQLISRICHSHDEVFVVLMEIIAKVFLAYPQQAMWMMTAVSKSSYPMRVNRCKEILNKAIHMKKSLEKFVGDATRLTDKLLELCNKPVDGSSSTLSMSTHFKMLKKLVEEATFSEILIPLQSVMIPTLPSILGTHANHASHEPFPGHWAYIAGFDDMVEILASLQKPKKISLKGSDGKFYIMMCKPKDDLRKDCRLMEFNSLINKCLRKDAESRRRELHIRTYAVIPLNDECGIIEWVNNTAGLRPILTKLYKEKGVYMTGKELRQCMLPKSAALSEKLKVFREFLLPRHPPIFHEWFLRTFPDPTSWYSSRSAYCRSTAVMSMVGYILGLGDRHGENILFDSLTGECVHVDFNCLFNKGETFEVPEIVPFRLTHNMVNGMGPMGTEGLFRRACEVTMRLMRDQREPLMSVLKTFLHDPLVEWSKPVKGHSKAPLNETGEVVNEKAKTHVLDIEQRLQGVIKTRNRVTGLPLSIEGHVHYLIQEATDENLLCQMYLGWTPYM
Chain of human ATR (Q8WXE1 other isoform, or with tags, fused parts or gaps partner): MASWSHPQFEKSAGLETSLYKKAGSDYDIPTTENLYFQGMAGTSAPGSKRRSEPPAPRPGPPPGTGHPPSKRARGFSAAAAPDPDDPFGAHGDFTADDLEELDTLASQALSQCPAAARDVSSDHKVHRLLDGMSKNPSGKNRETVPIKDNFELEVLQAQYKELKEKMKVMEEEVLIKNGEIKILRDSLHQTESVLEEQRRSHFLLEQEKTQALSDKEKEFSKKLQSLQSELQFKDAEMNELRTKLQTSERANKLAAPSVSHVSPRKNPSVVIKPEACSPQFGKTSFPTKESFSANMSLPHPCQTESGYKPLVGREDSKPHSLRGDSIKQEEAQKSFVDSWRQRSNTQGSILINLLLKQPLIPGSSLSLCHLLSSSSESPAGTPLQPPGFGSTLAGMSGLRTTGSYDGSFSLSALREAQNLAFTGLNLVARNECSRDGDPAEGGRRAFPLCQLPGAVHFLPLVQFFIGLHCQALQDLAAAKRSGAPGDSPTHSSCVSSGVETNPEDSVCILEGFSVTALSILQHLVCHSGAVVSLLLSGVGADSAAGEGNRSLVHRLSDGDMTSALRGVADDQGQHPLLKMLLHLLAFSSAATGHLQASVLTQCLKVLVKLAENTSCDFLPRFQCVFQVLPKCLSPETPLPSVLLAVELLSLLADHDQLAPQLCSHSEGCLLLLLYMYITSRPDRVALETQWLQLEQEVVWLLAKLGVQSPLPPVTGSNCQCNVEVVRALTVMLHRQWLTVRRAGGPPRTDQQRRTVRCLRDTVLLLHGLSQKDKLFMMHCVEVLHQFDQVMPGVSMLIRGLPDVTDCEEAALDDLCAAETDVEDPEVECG
Source text: To determine of binding activity of the test compounds, full-length human ATR protein was expressed and purified together with ATRIP as described above. Furthermore, a fluorescently labelled compound (either tracer A or B as described above) was used as a tracer molecule. Detection of the binding event of the tracer was achieved by time-resolved fluorescence energy transfer (TR-FRET). We used an anti-GST-Terbium antibody (CisBio) that binds to the GST-tag at the N-terminus of ATR-kinase. […] Displacement of the fluorescent tracer by a test compound leads to a reduction of the TR-FRET-signal.
For the assay 50 nl of a 100-fold concentrated solution of the test compound in DMSO was pipetted into a black low volume 384 well microtiter plate (MTP, Greiner Bio-One, Frickenhausen, Germany). […] The ATR-working solution was incubated for 30 min at 22° C. prior to dispensing to pre-form the complex of antiGST-Tb+GST-ATR+ATRIP. Then, 3 μl of the ATR-working solution were added to the test compound and the mixture was incubated for 10 min at 22° C. to allow pre-binding of the test compounds to ATR/ATRIP. Then, 2 μl of a 100 nM solution of either tracer A or B in assay buffer were added to the ATR-working solution. The resulting mixture was incubated for 30 min at 22° C. […] IC50 values were calculated by a 4 parameter fit using standard software (GraphPad prism or equivalent).

NCI-H460 cells = assay: Proliferation assay, crystal violet staining; settings: Homo sapiens, NCI-H460, 96 h, read-out: Inhibition of NCI-H460 cell proliferation, NCI-H460 cells, 4 days incubation

| Compound | pIC50 (HeLa-MaTu-ADR cells) | pIC50 (Caco-2 cells) | pIC50 (HeLa cells; read-out: Inhibition of HeLa cell proliferation) | pIC50 (DU145 cells) | pIC50 (B16F10 cells) | pIC50 (human ATR) | pIC50 (HeLa cells; read-out: Inhibition of HeLa cell proliferation, HeLa cells, 4 days incubation) | pIC50 (NCI-H460 cells) |
| --- | --- | --- | --- | --- | --- | --- | --- | --- |
| CCOP(C)(=O)c1cc(N2CCOC[C@H]2C)nc2c(-c3ccn[nH]3)nccc12 (stereo partly drawn) [Example 125, ethyl methyl{2-[(3R)-3-methylmorpholin-4-yl]-8-(1H-pyrazol-5-yl)-1,7-naphthyridin-4-yl}phosphinate] | < 5.52 | < 5.52 | 6.15 | 6.15 | < 5.52 |  |  |  |
| CC(C)S(=O)(=Nc1cc(N2CCOC[C@H]2C)nc2c(-c3ccn[nH]3)nccc12)c1ccc(Br)cc1 (stereo partly drawn) [Example 275] |  |  |  |  |  | 6.52 |  |  |
| CC1(C)C[C@@H]2C[C@@](C)(CN2c2cc(N3CCOCC3)nc3c(-c4ccn[nH]4)nccc23)C1 (stereo in doubt) [Example 421, 2-(morpholin-4-yl)-8-(1H-pyrazol-5-yl)-4-[1,3,3-trimethyl-6-azabicyclo[3.2.1]oct-6-yl]-1,7-naphthyridine] |  |  |  |  |  | 5.75 |  |  |
| C[C@@H]1COCCN1c1cc(-c2ccn[nH]2)c2ccnc(-c3ccn[nH]3)c2n1 [Example 205, 2-[(3R)-3-methylmorpholin-4-yl]-4,8-di(1H-pyrazol-5-yl)-1,7-naphthyridine] | 5.83 | 5.91 |  | 6.19 |  |  | 6.17 | 6.66 |
